Results on one compound are retold here after ChEMBL document CHEMBL5647688, “Mitogen-activated protein kinase (MEK/ERK) inhibition sensitizes cancer cells to centromere-associated protein E inhibition” (Int J Cancer, 2013).

Assay type in all cases: functional
In assay [1] the test system is SW48. The assay is described as follows: Synergistic cytotoxicity against human SW48 cells assessed as combination index at ED75 measured after 72 hrs in presence of MEK inhibitor GSK1120212 by Cell-titer Glo reagent assay.
Assay [2] deals with MIA PaCa-2. The assay is described as follows: Synergistic cytotoxicity against human MIA PaCa-2 cells expressing KRAS mutant assessed as combination index at ED 50 measured after 72 hrs in presence of MEK inhibitor GSK1120212 by Cell-titer Glo reagent assay.
The test system of assay [3] is SK-N-FI. The assay is described as follows: Synergistic cytotoxicity against human SK-N-FI cells assessed as combination index at ED 75 measured after 72 hrs in presence of SN-38 and temozolomide by Cell-titer Glo reagent assay.
Assay [4] relates to NCI-H520. The assay is described as follows: Synergistic cytotoxicity against human NCI-H520 cells assessed as combination index at ED 50 measured after 72 hrs in presence of MEK inhibitor GSK1120212 by Cell-titer Glo reagent assay.
The subject of assay [5] is NCI-H358. The assay is described as follows: Synergistic cytotoxicity against human NCI-H358 cells expressing KRAS mutant assessed as combination index at ED75 measured after 72 hrs in presence of MEK inhibitor GSK1120212 by Cell-titer Glo reagent assay.
Assay [6] deals with SK-N-FI. The assay is described as follows: Synergistic cytotoxicity against human SK-N-FI cells assessed as combination index at ED 50 measured after 72 hrs in presence of SN-38 and temozolomide by Cell-titer Glo reagent assay.
Assay [7] has as its system SW1990. The assay is described as follows: Synergistic cytotoxicity against human SW1990 cells expressing KRAS mutant assessed as combination index at ED 50 measured after 72 hrs in presence of MEK inhibitor GSK1120212 by Cell-titer Glo reagent assay.
Assay [8] concerns NCI-H2030. The assay is described as follows: Synergistic cytotoxicity against human NCI-H2030 cells expressing KRAS mutant assessed as combination index at ED 50 measured after 72 hrs in presence of MEK inhibitor GSK1120212 by Cell-titer Glo reagent assay.
In assay [9] the test system is NB-1691. The assay is described as follows: Synergistic cytotoxicity against human NB-1691 cells assessed as combination index at ED 75 measured after 72 hrs in presence of SN-38 by Cell-titer Glo reagent assay.
Assay [10] has as its system NCI-H460. The assay is described as follows: Synergistic cytotoxicity against human NCI-H460 cells expressing KRAS mutant assessed as combination index at ED 50 measured after 72 hrs in presence of MEK inhibitor GSK1120212 by Cell-titer Glo reagent assay.
Assay [11] concerns HPAF-II. The assay is described as follows: Synergistic cytotoxicity against human HPAF-II cells expressing KRAS mutant assessed as combination index at ED 50 measured after 72 hrs in presence of MEK inhibitor GSK1120212 by Cell-titer Glo reagent assay.
Assay [12] concerns Capan-2. The assay is described as follows: Synergistic cytotoxicity against human Capan-2 cells expressing KRAS mutant assessed as combination index at ED 50 measured after 72 hrs in presence of MEK inhibitor GSK1120212 by Cell-titer Glo reagent assay.

Molecules are shown by their SMILES.

Take `CC(C)Oc1ccc(C(=O)N[C@H](CNC(=O)CN(C)C)Cc2ccc(-c3cn4cccc([C@H](C)O)c4n3)cc2)cc1Cl` [GSK-923295A]: the CI in assay [1] turned out to be 0.091; in assay [2], 0.394; in assay [3], 1.058; in assay [4], 0.842; in assay [5], 0.467; in [6], 0.67. In addition, the CI in assay [7] is 0.176; in assay [8], 0.308; in [9], 0.886; in assay [10], 0.25; in assay [11], 0.567; in [12], 0.298.
